In ChEMBL document CHEMBL1156829 (Proc Natl Acad Sci U S A, 2008):

Experiments:
Plasmodium falciparum [1] = test: NOVARTIS: Inhibition of Plasmodium falciparum 3D7 (drug-susceptible) proliferation in erythrocyte-based infection assay; format: functional, organism-based; settings: Plasmodium falciparum, 3D7
[2] = NOVARTIS: Cytotoxicity against human hepatocellular carcinoma cell line (Huh7); format: toxicity, cell-based, Huh-7; settings: Huh7 cells (hepatocellular carcinoma cell line)
Plasmodium falciparum [3] = test: NOVARTIS: Inhibition of Plasmodium falciparum W2 (drug-resistant) proliferation in erythrocyte-based infection assay; format: functional, organism-based; settings: Plasmodium falciparum, W2; read-out: EC50

SMILES	EC50 (Plasmodium falciparum [1]) [µM]	CC50 [2] [µM]	EC50 (Plasmodium falciparum [3]) [µM]
O=C(NCCCCNc1ccnc2cc(Cl)ccc12)C1CCCC1	0.409	> 10	0.485
CCCCNC(=O)CSCc1cnn(-c2ccccc2)c1-n1cccc1	0.253	> 100	0.257
Cc1cc(Nc2ccccc2)nc(Nc2ccccc2)n1	0.259	20	0.248
Cc1ccc(CSCc2ccc(C(=O)NC3CC3)o2)cc1	0.418	> 100	0.133
CCOc1ccc2nc3ccc([N+](=O)[O-])cc3c(NC)c2c1	0.222	> 10	0.534
COc1cc(-c2nc(-c3ccccc3)c(-c3ccc(O)cc3)[nH]2)cc(OC)c1O	0.879	> 10	> 1.75
Brc1cccc(CNC2CCN(CCc3ccccc3)CC2)c1	0.31	22.9	0.515
COCCN(CC(O)CNC(=O)c1ccc2ccccc2n1)S(=O)(=O)c1c(C)noc1C (stereo not given)	> 0.09	> 10	> 0.895
Cc1c(C(=O)N2CCC3(CCN(C)C3)C2)cnn1-c1ncc2c(n1)-c1ccccc1SC2 (stereo not given)	1.56	> 10	0.603
COc1ccc(CN2C[C@H](Sc3nc4ccccc4[nH]3)C[C@H]2C(=O)NC2CC2)cc1C	0.545	16.5	0.83
COc1ccccc1NC(=O)N1CCN(C(=O)c2nc(-c3ccccc3)nc(C)c2C(=O)OC(C)C)CC1C (stereo not given)	0.529	> 10	< 0.0169
COc1ccc2c(C)nc(Nc3nc(C)cc(-c4ccccc4)n3)nc2c1	0.341	> 100	1.17
CCOC(=O)N1CCN(C(=O)CCCCn2c(=S)[nH]c3ccsc3c2=O)CC1	> 1.13	> 10	> 1.25
CC(C)(C)c1ccc(-c2nc(C34CC5CC(CC(C5)C3)C4)cs2)cc1	> 12.5	> 100	1.65
CCc1ccc(C(=O)N2CCCn3cccc3C2c2ccc(C(C)(C)C)cc2)cc1 (stereo not given)	> 1.25	> 10	1.16
OC1(c2ccc(Cl)c(C(F)(F)F)c2)CCN(CCOC2c3ccccc3CSc3ccc(Cl)cc32)CC1 (stereo not given)	1.01	19.2	0.888
O=[N+]([O-])c1ccc(C=NN2CCN(Cc3ccccc3Cl)CC2)cc1	> 7.22	> 100	> 1.59
COc1ccc(OC)c(-c2ccc(O)c(CNCc3ccccc3OC)c2)c1	> 1.52	> 10	0.117
CN1CCc2c(sc3nc(SCc4ccccc4)n(-c4ccccc4)c(=O)c23)C1	1.77	> 100	0.67
CC(=O)N(/C=C1/Sc2ccccc2C1=O)c1ccc(C)cc1	> 1.25	> 10	2.41
C(=C\c1ccccc1)/CNC1CCN(Cc2ccccc2)CC1	0.995	> 10	0.657
Clc1ccc(CCNC2CCN(CCc3ccccc3)CC2)cc1	0.15	9.6	0.696
Cc1ccc(Cl)cc1-n1c(SCc2ccccc2)nnc1C(Cc1ccccc1)NC(=O)C12CC3CC(CC(C3)C1)C2 (stereo not given)	> 1.25	1.13	> 0.954
COc1ccc(NC(=O)C2c3ccccc3C(=O)N(CC(C)C)C2c2cccs2)cc1Cl (stereo not given)	0.0914	> 100	0.0556

SMILES	EC50 (Plasmodium falciparum [1]) [µM]	CC50 [2] [µM]	EC50 (Plasmodium falciparum [3]) [µM]
COc1cc(OC)nc(CSc2ccc(NC(=O)CCl)cc2)n1	0.518	> 10	0.479
CCOc1ccc(C(=O)CN2C(=O)c3ccccc3OC(C(C)C)C2=O)cc1[N+](=O)[O-] (stereo not given)	> 12.5	> 100	1.92
CC(C)(C)c1ccc(C(=O)C[n+]2cc(-c3ccccc3)n3c2CCC3)cc1	1.14	43	0.47
Cc1cc(C)nc(NC(=N)Nc2cccc(O)c2)n1	3.92	> 100	2.65
Cc1nc2ccccn2c1C1(O)C(=O)Nc2c(Cl)cc(Cl)cc21 (stereo not given)	0.449	> 10	0.178
O=C(CCc1ccccc1)c1ccccc1OCC(O)CN1CCCCC1 (stereo not given)	0.881	87.9	0.144
CCCN1CCC(N2C[C@@H](NCCC3=C(C)CCCC3(C)C)C[C@H]2C(=O)NCC)CC1	2.34	35.1	0.765
CCC(Oc1ccc(C(C)(C)CC)cc1C(C)(C)CC)C(=O)Nc1ccc(Cl)c([N+](=O)[O-])c1 (stereo not given)	0.275	> 10	0.349
CCc1nc2nc(C)cc(Nc3ccc4c(c3)OCCO4)n2n1	0.36	> 100	0.219
COCC(=O)NCc1ccc(OC2CCN(CC(c3ccccc3)c3ccccc3)CC2)cc1	0.46	> 10	< 0.0167
O=C1c2ccccc2-c2nnc(-c3ccccc3)cc21	0.268	> 10	0.392
CCCCN(C(=O)c1ccccc1C)c1nc(-c2cc(OC)ccc2OC)cs1	1.72	> 100	2.86
COC(=O)C1=CNC=C(C(=O)OC)C1c1cc(Br)ccc1OC	> 12.2	> 57.8	4.52
c1ccc2c(c1)[nH]c1ccc3ccncc3c12	0.0853	> 10	0.0242
CC(NCc1cc(-c2ccccc2)ccc1O)c1cccc2ccccc12 (stereo not given)	1.21	> 10	0.0773
Cc1cc(N2CCCCC2)nc2ccc(NC(=O)c3cncc(Br)c3)cc12	1.36	> 10	> 1.25
CCCCCCN(C(=O)COc1ccccc1)C(CC)c1nc2ccccc2c(=O)n1-c1cccc(Cl)c1 (stereo not given)	2.74	> 100	4.01
O=C(Nc1ccccc1)C(=Cc1ccncc1)NC(=O)c1ccccc1	> 2.7	> 100	0.87
COc1cccc(CN2CCc3nc(N4CCCCC4)sc3C2)c1	0.52	> 10	0.216
CCCCCc1cc(O)c2c3c(c(=O)oc2c1)CN(C)CC3	0.0494	> 96.8	0.0376
c1cncc(-c2cc(NCCCN3CCOCC3)nc(-c3ccncc3)n2)c1	1.08	> 10	1.21
O=C(CCl)Nc1ccc(OC(F)F)cc1	0.317	18.1	0.162
Cc1cc(NC2CCCCC2)nc(NCc2ccccc2)n1	0.296	7.87	0.364
Cc1ccc(NC(=O)c2sc3nc4c(c(-c5cccs5)c3c2N)CCCCC4)cc1	5.57	> 100	1.55

SMILES	EC50 (Plasmodium falciparum [1]) [µM]	CC50 [2] [µM]	EC50 (Plasmodium falciparum [3]) [µM]
COCC(=O)NC(c1ccccc1)c1cc(Cl)c2cccnc2c1O (stereo not given)	1.05	> 10	0.95
CCOC(=O)C1(CC2CCCCO2)CCN(Cc2cccc(C)n2)CC1 (stereo not given)	> 8.37	> 100	1.78
CCOc1ccc(CN2CCN(CC(O)COc3ccc(OCC(O)CN4CCN(Cc5ccc(OCC)cc5)CC4)cc3)CC2)cc1 (stereo not given)	1.37	73.7	2.68
CC[n+]1c(C=Cc2ccc(Cl)cc2)ccc2ccccc21	3.75	19.5	1.26
Cc1nnc2sc(SCc3cccc([N+](=O)[O-])c3)nn2c1=O	> 1.07	> 13.9	0.942
C[n+]1c2n(c3ccccc31)N=C(c1ccccc1)CS2	0.454	45.1	0.347
CCN(CC)C(=O)COc1ccc(-c2nnc(N3CCCCC3)c3ccccc23)cc1	1.74	> 100	0.508
C=C[C@H]1CN2CC[C@H]1C[C@@H]2[C@@H](OC(=O)c1ccc(OC)cc1)c1ccnc2ccccc12	0.243	2.61	0.0185
COc1cc(CNCCCn2ccnc2)ccc1OCc1ccccc1	> 1.25	> 10	> 1.17
CCN(CC)CCCC(C)Nc1ccnc2cc(Cl)ccc12 (stereo not given) [CHLOROQUINE]	0.00243	12.4	0.0837
COc1ccc(OC)c(-c2ccc(C(=O)N3CCN(C/C=C/c4ccccc4)CC3)c(N(C)C)n2)c1	0.922	> 10	0.333
CCOC(=O)C1=C(C)N(c2ccc(OCC)cc2)C(=O)/C1=C\c1ccc(C(C)C)cc1	> 1.28	> 10	0.439
CCOc1ccccc1-n1c(C(C)N(CCc2ccccc2)C(=O)c2ccc(Br)cc2)nc2ccccc2c1=O (stereo not given)	> 1.25	> 10	0.834
COCCNCc1cc2cc3c(cc2n(Cc2cccc(F)c2)c1=O)OCO3	> 1.25	> 10	1.27
CC(=O)Nc1ccc(NC2=C(N3CCCCC3)C(=O)c3ccccc3C2=O)cc1	0.0528	> 100	0.111
N#Cc1sccc1NS(=O)(=O)c1ccc(Cl)cc1	> 1.25	> 10	> 0.413
NC(=S)NN=C1c2ccccc2-c2nc3nonc3nc21	1.13	> 10	0.582
CCC(c1nc2ccccc2c(=O)n1-c1ccccc1OC)N(CCc1ccccc1)C(=O)c1cccc(C(F)(F)F)c1 (stereo not given)	0.919	> 10	0.118
CN(CCCNc1ccnc2cc(Cl)ccc12)C(=O)C1CC1	0.164	> 7.25	0.0467
Nc1nnc(CCSc2ccc(Cl)cc2)s1	0.175	> 3.71	> 1.25
COc1cc(C(=O)NCCc2ccccn2)ccc1OC1CCN(CC(c2ccccc2)c2ccccc2)CC1	0.44	13	0.0864
O=C(C(Cc1ccc(O)cc1)c1ccccc1)N1CCC(n2c(Cc3ccc(F)cc3)nc3cccnc32)CC1 (stereo not given)	0.351	> 100	0.138
